In patent publication US7968577B2 (Bristol-Myers Squibb Company, priority 2006, dated 2011):

Test system: AP-1 induced transcriptional activity
Assay: Cellular Transrepressional Assay: AP-1 luciferase reporter in PMA-activated A549 cells
Assay type: cell-based
Conditions: for Emax: A549, 7 h, read-out: AP-1 Max % inh (Cellular Transrepression Assay)
Protocol: Cellular Transrepressional Assay
To measure the ability of test molecules to inhibit AP-1 induced transcriptional activity we utilized an A549 cell which was stably transfected with a plasmid containing 7× AP-1 DNA binding sites (pAP-1-Luc plasmid, Stratagene Co. La Jolla, Calif.) followed by the gene for luciferase. Cells were activated with 10 ng/ml of […] (PMA) plus or minus test molecules for 7 hours. After 7 hours a luciferase reagent was added to measure luciferase enzymatic activity in the cell. After a 10 minute incubation of luciferase reagent with cells, luminescence was measured in a TopCount luminescence counter. Repression of AP-1 activity was calculated as the percentage decrease in the signal induced by PMA alone. Test molecules were analyzed in the concentration range from 0.1 nM to 40 μM. EC50s were determined by using standard curve fitting methods such as Excel fit (Microsoft Co.).

[1] = Homo sapiens, maximum inhibition, Cellular Transrepression Assay
[2] = Homo sapiens, A549, Cellular Transrepression Assay

Q: What does the source list for CC(C)(C(=O)Nc1nncs1)[C@@H](c1ccccc1)c1ccc(O)cc1 [Example 339, (3S)-3-(4-hydroxyphenyl)-2,2-dimethyl-3-phenyl-N-1,3,4-thiadiazol-2-ylpropanamide]?
A: Emax [1]: 60.8%; EC50 [2]: 30.5 nM

Q: How did the Emax [1] turn out when CC(C)(C(=O)Nc1nncs1)[C@H](c1ccccc1)c1ccc(O)cc1 [Example 340, (3R)-3-(4-hydroxyphenyl)-2,2-dimethyl-3-phenyl-N-1,3,4-thiadiazol-2-ylpropanamide] was run?
A: 57%

Q: And the EC50 [2]?
A: 90.3 nM

Q: How did the EC50 (Cellular Transrepression Assay) turn out when CC(C)(C(=O)Nc1nccs1)C(c1ccccc1)c1ccc(O)c(F)c1 (centres unmarked) [Example 345, 3-(3-fluoro-4-hydroxyphenyl)-2,2-dimethyl-3-phenyl-N-1,3-thiazol-2-ylpropanamide] was run?
A: 35.2 nM

Q: And the Emax [1]?
A: 68.1%

Q: For CC(C)(C(=O)Nc1nccs1)C(c1ccccc1)c1ccc(O)c(F)c1 (centres unmarked) [Example 347, 3-(3-fluoro-4-hydroxyphenyl)-2,2-dimethyl-3-phenyl-N-1,3-thiazol-2-ylpropanamide], which EC50 (Cellular Transrepression Assay) is on record?
A: 10.8 nM

Q: What about the “AP-1 Max % inh (Cellular Transrepression Assay)” value (maximum inhibition, Cellular Transrepression Assay) of the same molecule?
A: 55.26%

Q: CC(C)(C(=O)Nc1nncs1)C(c1ccccc1)c1ccc(O)c(F)c1 (centres unmarked) [Example 348, 3-(3-fluoro-4-hydroxyphenyl)-2,2-dimethyl-3-phenyl-N-1,3,4-thiadiazol-2-ylpropanamide] was tested. Which Emax [1] did it give?
A: 54%

Q: What about the EC50 [2] of the same molecule?
A: 120 nM

Q: Which results are given for CC(C)(C(=O)Nc1nccs1)[C@@H](c1ccccc1)c1ccc(O)c(Br)c1 [Example 350, (3S)-3-(3-bromo-4-hydroxyphenyl)-2,2-dimethyl-3-phenyl-N-1,3-thiazol-2-ylpropanamide]?
A: Emax [1]: 81.8%; EC50 [2]: 15 nM

Q: For CC(C)(C(=O)Nc1nncs1)[C@@H](c1ccccc1)c1ccc(O)c(Br)c1 [Example 351, (3S)-3-(3-bromo-4-hydroxyphenyl)-2,2-dimethyl-3-phenyl-N-1,3,4-thiadiazol-2-ylpropanamide], which Emax [1] is on record?
A: 66%

Q: And the EC50 [2]?
A: 16.4 nM

Q: For COc1ccc(Cc2csc(NC(=O)C(C)(C)C(c3ccccc3)c3ccc(O)cc3)n2)cc1 (centres unmarked) [Example 352], which Emax [1] is on record?
A: 61.7%

Q: And the EC50 [2]?
A: 118 nM

Q: Which results are given for CC(C)(C(=O)Nc1nc(Cc2ccc(-c3ccncc3)cc2)cs1)C(c1ccccc1)c1ccc(O)cc1 (centres unmarked) [Example 353, 3-(4-hydroxyphenyl)-2,2-dimethyl-3-phenyl-N-(4-((4-(4-pyridinyl)phenyl)methyl)-1,3-thiazol-2-yl)propanamide]?
A: Emax [1]: 77.8%; EC50 [2]: 100 nM

Q: For CC(C)(C(=O)Nc1nc(Cc2ccc(-c3ccncc3)cc2)cs1)[C@@H](c1ccccc1)c1ccc(O)cc1 [Example 354, 3-(4-hydroxyphenyl)-2,2-dimethyl-3-phenyl-N-(4-((4-(4-pyridinyl)phenyl)methyl)-1,3-thiazol-2-yl)propanamide], which Emax [1] is on record?
A: 71.8%

Q: And the EC50 [2]?
A: 158 nM

Q: For CC(C)(C(=O)Nc1nc(Cc2ccc(-c3ccncc3)cc2)cs1)C(c1ccc(O)cc1)c1ccc(O)cc1 [Example 356], which Emax [1] is on record?
A: 61.1%

Q: And the EC50 [2]?
A: 736 nM

Q: With CC(C)(C(=O)Nc1nc(Cc2ccc(-c3ccncc3)cc2)cs1)C(c1ccccc1)c1cccc(O)c1 (centres unmarked) [Example 357] as the molecule, how does the Emax [1] read?
A: 73.7%

Q: What about the EC50 [2] of the same molecule?
A: 144 nM

Q: With CC(C)(C(=O)Nc1nccs1)[C@@H](c1ccccc1)c1ccc(O)c(C#N)c1 [Example 359, (3S)-3-(3-Cyano-4-hydroxyphenyl)-2,2-dimethyl-3-phenyl-N-1,3-thiazol-2-ylpropanamide] as the molecule, how does the Emax [1] read?
A: 65.2%

Q: And the EC50 [2]?
A: 278 nM

Q: For CC(=O)Oc1ccc([C@H](c2ccccc2)C(C)(C)C(=O)Nc2nccs2)cc1 [Example 361, 4-((1S)-2,2-dimethyl-3-oxo-1-phenyl-3-(1,3-thiazol-2-ylamino)propyl)phenyl acetate], which Emax [1] is on record?
A: 36.4%

Q: And the EC50 [2]?
A: 13.3 nM

Q: CC(C)(C(=O)Nc1nccs1)[C@@H](c1ccccc1)c1ccc(OC(=O)c2ccco2)cc1 [Example 362, 4-((1S)-2,2-dimethyl-3-oxo-1-phenyl-3-(1,3-thiazol-2-ylamino)propyl)phenyl 2-furancarboxylate] was tested. Which Emax [1] did it give?
A: 33.4%

Q: What about the EC50 [2] of the same molecule?
A: 16.6 nM

Q: CC(C)(C(=O)Nc1nccs1)[C@@H](c1ccccc1)c1ccc(OC(=O)c2ccoc2)cc1 [Example 364, 4-((1S)-2,2-dimethyl-3-oxo-1-phenyl-3-(1,3-thiazol-2-ylamino)propyl)phenyl 3-furancarboxylate] was tested. Which Emax [1] did it give?
A: 39.1%

Q: And the EC50 [2]?
A: 184 nM

Q: For CC(C)(C(=O)Nc1nccs1)[C@@H](c1ccccc1)c1ccc(OC(=O)C2CCCO2)cc1 (stereo partly drawn) [Example 366, 4-((1S)-2,2-dimethyl-3-oxo-1-phenyl-3-(1,3-thiazol-2-ylamino)propyl)phenyl tetrahydro-2-furancarboxylate], which Emax [1] is on record?
A: 32.6%

Q: And the EC50 [2]?
A: 20 nM

Q: With CC(=O)c1ccc(C(c2ccccc2)C(C)(C)C(=O)Nc2nncs2)cc1 (centres unmarked) [Example 369, 3-(4-acetylphenyl)-2,2-dimethyl-3-phenyl-N-1,3,4-thiadiazol-2-ylpropanamide] as the molecule, how does the Emax [1] read?
A: 34.9%

Q: And the EC50 [2]?
A: 819 nM

Q: What does the source list for COc1ccc(-c2ccc(C(c3ccccc3)C(C)(C)C(=O)Nc3nccs3)cc2)cc1 (centres unmarked) [Example 374, 2,2-Dimethyl-3-(4′-(methyloxy)-4-biphenylyl)-3-phenyl-N-1,3-thiazol-2-ylpropanamide]?
A: Emax [1]: 39.7%; EC50 [2]: 121 nM

Q: For COc1ccc(-c2ccc(C(c3ccccc3)C(C)(C)C(=O)Nc3nncs3)cc2)cc1 (centres unmarked) [Example 378, 2,2-dimethyl-3-(4′-(methyloxy)-4-biphenylyl)-3-phenyl-N-1,3,4-thiadiazol-2-ylpropanamide], which Emax [1] is on record?
A: 26.2%

Q: What about the EC50 [2] of the same molecule?
A: 894 nM

Q: With CC(C)Oc1ccc(-c2ccc(C(c3ccccc3)C(C)(C)C(=O)Nc3nncs3)cc2)cc1 (centres unmarked) [Example 382, 2,2-dimethyl-3-(4′-((1-methylethyl)oxy)-4-biphenylyl)-3-phenyl-N-1,3,4-thiadiazol-2-ylpropanamide] as the molecule, how does the Emax [1] read?
A: 40.1%

Q: What about the EC50 [2] of the same molecule?
A: 28.1 nM

Q: What does the source list for CC(C)CC(c1ccc(-c2ccc(OC(C)C)cc2)cc1)C(C)(C)C(=O)Nc1nncs1 (centres unmarked) [Example 395, 2,2,5-trimethyl-3-(4′-((1-methylethyl)oxy)-4-biphenylyl)-N-1,3,4-thiadiazol-2-ylhexanamide]?
A: Emax [1]: 32.5%; EC50 [2]: 13.4 nM

Q: CC(C)Cc1ccc(-c2ccc(C(CC(C)C)C(C)(C)C(=O)Nc3nccs3)cc2)cc1 (centres unmarked) [Example 396, 2,2,5-trimethyl-3-(4′-(2-methylpropyl)-4-biphenylyl)-N-1,3-thiazol-2-ylhexanamide] was tested. Which Emax [1] did it give?
A: 31.5%

Q: What about the EC50 [2] of the same molecule?
A: 227 nM

Q: Which results are given for CCCc1ccc(-c2ccc(C(CC(C)C)C(C)(C)C(=O)Nc3nccs3)cc2)cc1 (centres unmarked) [Example 398, 2,2,5-trimethyl-3-(4′-propyl-4-biphenylyl)-N-1,3-thiazol-2-ylhexanamide]?
A: Emax [1]: 28.2%; EC50 [2]: 70 nM

Q: How did the Emax [1] turn out when CC(C)CC(c1ccc(-c2ccc(OC(C)C)cc2)cc1)C(C)(C)C(=O)Nc1nccs1 (centres unmarked) [Example 400, 2,2,5-trimethyl-3-(4′-((1-methylethyl)oxy)-4-biphenylyl)-N-1,3-thiazol-2-ylhexanamide] was run?
A: 46.1%

Q: And the EC50 [2]?
A: 267 nM

Q: CC(C)(C(=O)Nc1nncs1)C(c1ccccc1)c1ccc(-c2ccc(C(=O)N3CCOCC3)cc2)cc1 (centres unmarked) [Example 401, 2,2-dimethyl-3-(4′-(4-morpholinylcarbonyl)-4-biphenylyl)-3-phenyl-N-1,3,4-thiadiazol-2-ylpropanamide] was tested. Which Emax [1] did it give?
A: 47%

Q: What about the EC50 [2] of the same molecule?
A: 13.3 nM

Q: CC(C)(C(=O)Nc1nncs1)C(c1ccccc1)c1ccc(-c2ccccc2)cc1 (centres unmarked) [Example 402, 3-(4-biphenylyl)-2,2-dimethyl-3-phenyl-N-1,3,4-thiadiazol-2-ylpropanamide] was tested. Which Emax [1] did it give?
A: 26.5%

Q: What about the EC50 [2] of the same molecule?
A: 7.9 nM

Q: Which results are given for CC(C)(C(=O)Nc1nncs1)C(c1ccccc1)c1ccc(-c2ccc(Cl)cc2)cc1 (centres unmarked) [Example 403, 3-(4′-chloro-4-biphenylyl)-2,2-dimethyl-3-phenyl-N-1,3,4-thiadiazol-2-ylpropanamide]?
A: Emax [1]: 24.9%; EC50 [2]: 3.03 nM

Q: Which results are given for CC(C)(C(=O)Nc1nncs1)C(c1ccccc1)c1ccc(-c2ccc(-c3ccccc3)cc2)cc1 (centres unmarked) [Example 404, 2,2-dimethyl-3-phenyl-3-(1,1′:4′,1″- terphenyl-4-yl)-N-1,3,4-thiadiazol-2-ylpropanamide]?
A: Emax [1]: 21.9%; EC50 [2]: 9.57 nM

Q: CC(C)(C(=O)Nc1nncs1)C(c1ccccc1)c1ccc(-c2ccc(OC(F)(F)F)cc2)cc1 (centres unmarked) [Example 405, 2,2-dimethyl-3-phenyl-N-1,3,4-thiadiazol-2-yl-3-(4′-(trifluoromethoxy)-4-biphenylyl)propanamide] was tested. Which Emax [1] did it give?
A: 35.2%

Q: What about the EC50 [2] of the same molecule?
A: 24.6 nM

Q: Which results are given for CC(=O)c1ccc(-c2ccc(C(c3ccccc3)C(C)(C)C(=O)Nc3nncs3)cc2)cc1 (centres unmarked) [Example 406, 3-(4′-acetyl-4-biphenylyl)-2,2-dimethyl-3-phenyl-N-1,3,4-thiadiazol-2-ylpropanamide]?
A: Emax [1]: 29.4%; EC50 [2]: 39 nM

Q: Which Emax [1] does the source give for CCc1ccc(-c2ccc(C(c3ccccc3)C(C)(C)C(=O)Nc3nncs3)cc2)cc1 (centres unmarked) [Example 407, 3-(4′-ethyl-4-biphenylyl)-2,2-dimethyl-3-phenyl-N-1,3,4-thiadiazol-2-ylpropanamide] here?
A: 37.5%

Q: And the EC50 [2]?
A: 14.9 nM

Q: What does the source list for COCc1ccc(-c2ccc(C(c3ccccc3)C(C)(C)C(=O)Nc3nncs3)cc2)cc1 (centres unmarked) [Example 408, 3-(4′-(methoxymethyl)-4-biphenylyl)-2,2-dimethyl-3-phenyl-N-1,3,4-thiadiazol-2-ylpropanamide]?
A: Emax [1]: 24.9%; EC50 [2]: 39.8 nM

Q: Which results are given for CC(C)c1ccc(-c2ccc(C(c3ccccc3)C(C)(C)C(=O)Nc3nncs3)cc2)cc1 (centres unmarked) [Example 422, 3-(4′-isopropyl-4-biphenylyl)-2,2-dimethyl-3-phenyl-N-1,3,4-thiadiazol-2-ylpropanamide]?
A: Emax [1]: 33.7%; EC50 [2]: 2.7 nM
